Reference: patent publication US8507445B2, “Compositions and methods of use of targeting peptides for diagnosis and therapy of human cancer” (Board of Regents, The University of Texas System, priority 2002, dated 2013)
One block for each compound: values may come before it. Bridge positions count the residues as written; N and C are the ends. Square brackets hold non-standard residues; d marks the D form. Ends that are not written are not given here. Peptide text beside a SMILES is read from it.

Tests used:
[1] = tested on: patient's serum antibodies, anti-GRP78 antibody, anti-CNVSDKSC antibodies; test: Cross-inhibition assay; format: binding, human; settings: anti-GRP78 and anti-CNVSDKSC antibodies
Experimental: Microtiter 96-well plates were coated with 10 μg/ml recombinant GRP78 (Stressgen) or GST attached to […] (SEQ ID NO:39) in 100 mM NaHCO3 overnight at 4° C., washed and then blocked with blocking buffer (2% milk, 1% casein, 0.05% Tween-20 in PBS) for 2 hours at 37° C. To determine the inhibitory activities of GRP78 or GST-[…] (SEQ ID NO:39), patient serum (1:50), anti-GRP78 (1:1000), and anti-GST-[…] (1:20) were incubated with GRP78 (50-100 μg) or GST-[…] (SEQ ID NO:39) (100-300 μg). The mixtures were incubated for 1 hour at 37° C. prior to adding to the coated wells. After 1 hour of incubation at room temperature the wells were washed several times with PBST buffer (0.05% Tween-20 in PBS). Secondary antibodies conjugated to horseradish peroxidase were added at 1:5000 dilution, incubated for 30 minutes at room temperature and washed five times with PBST buffer. Finally, the substrate 3,3′,5,5′-Tetramethylbenzidine (TMB; Calbiochem) was added and incubated for 15 minutes at room temperature before stopping the reaction by addition of 0.5M H2SO4. Absorbance at 450 nm was determined in an automated ELISA reader (Bio-Tek).

[2] = tested on: bone marrow metastasis from a prostate cancer; test: Immunohistochemical staining inhibition; set-up: species or system human; settings: GRP78 staining of bone marrow metastasis
Experimental: Paraffin sections (4 μm) were stained with purified biotinylated antibodies and peptide antibodies by immunoperoxidase detection using the Dako antigen retrieval kit and DAB (diaminobenzidine) as a substrate. All of the sections were counter-stained with hematoxylin. Purified IgGs were coupled to biotin and resolved by SDS-PAGE. The biotinylated immunopurified antibodies were used at a dilution of 1:60. Peptide C antibodies and purified pre-immune antibodies were used at 0.01 μg/μl. For the inhibition staining, peptide C antibodies were pre-incubated for 30 minutes at room temperature with the corresponding GST-peptide C (500 μg) prior to staining. For the GRP78 immunostaining, anti-GRP78 antibody (C-20) was used at 1:350 (Santa Cruz Biotechnology, Santa Cruz, Calif.). Peptide antibodies were generated in rabbits and purified using a T-gel immunoglobulin purification kit and protein G column (Pierce).

[3] = Anti-obesity therapy, regular diet-fed old mice; set-up: species or system C57BL/6 mice; settings: mouse, in vivo
adipose tissue = test: Histopathological analysis of tissues from treated mice; settings: mouse, in vivo
Experimental: (§1) Staining of formalin-fixed, paraffin-embedded mouse tissue sections was performed (Pasqualini & Rouslahti, 1996; Pasqualini et al., 2000). For phage-peptide immunolocalization, 10^10 TU of […] (SEQ ID NO:81)-phage or a control insertless phage was injected intravenously. Phage immunohistochemistry was performed using a rabbit anti-fd phage antibody (Sigma Chemicals, St. Louis, Mo.) used at 1:1,000 dilution and a secondary horseradish peroxidase (HRP)-conjugated antibody. Apoptosis was detected using standard TUNEL immunohistochemistry and an HRP-conjugated antibody. For in vivo peptide homing validation, stocks of 5-carboxyfluorescein (FITC)-conjugated […] (SEQ ID NO:81) or CARAC (SEQ ID NO:71) were chemically synthesized, cyclized using the terminal cysteines and HPLC-purified to >90% purity by Anaspec (San Jose, Calif.). Lyophilized peptides were dissolved in DMSO to a concentration of 20 mM. Ten μl of 1 mM peptide-FITC solution in PBS was injected 5 min prior to tissue extraction. For blood vessel localization, 10 μl of 2 mg/ml of rhodamine-conjugated lectin-I (RL-1102, Vector Laboratories, Burlingame, Calif.) was co-injected. All immunohistochemistry and FITC immunofluorescence images were captured using an Olympus IX70 microscope and digital camera setup (Melville, N.Y.).

[4] = Injection into genetically obese mice; format: in vivo; settings: not normal obese mice
KS1767 cells = test: Targeted phage vector transduction and peptide inhibition in cell culture; format: cell-based, human; settings: cells pre-incubated with synthetic peptide
Experimental: (§2) Targeted phage vector transduction and specific inhibition by using synthetic peptides. MDA-MB-435 breast cancer and KS1767 Karposi's sarcoma cells were cultured on 8-well chamber glass slides. The culture media was replaced by 200 μl of MEM with 2% FCS and 5×10^10 TU of RGD-4C-β-gal, HWGF-β-gal, or fd-β-gal phage vectors (at 10^5 transducing units/cell in each case). Both cell lines express high levels of the integrin and MMP receptors for those targeting peptides. Phage were incubated with cells for 3 hr at 37° C., followed by a medium change to MEM plus 10% FCS. The cells were incubated for 72 hr at 37° C. to allow for β-gal gene expression. […]
(§3) In the cell culture transduction assay, β-gal expression was analyzed by immunofluorescence. For quantification of expression in cell culture, the transduced cells were washed with PBS and permeabilized with 0.2% Triton X-100 for five minutes on ice, followed by blocking with 1% BSA in PBS. […] The degree of β-gal gene expression was determined by counting fluorescent cells in at least ten fields under an inverted microscope (Nikon, Japan). Quantification of the β-gal activity in cell culture was measured as relative light units (RLU) in a luminometer and then normalized to the amount of protein in micrograms, as determined by the Lowry method in a protein assay kit (Bio-Rad Protein Assay®; Hercules, Calif.). […]

subcutaneous white fat = test: In vivo phage library screening for fat-homing peptides; set-up: species or system ob/ob mice; settings: mouse
Experimental: In vivo phage-display screening of the CX7C library (C, cysteine; X, any amino acid) (Pasqualini et al., 2000; Arap et al., Nature Med. 8:121-127, 2002) for fat-homing peptides was performed (Pasqualini & Rouslahti 1996, Pasqualini et al., 2000). In each biopanning round, an adult ob/ob mouse was injected intravenously (tail vein) with 10^10 transducing units (TU) of the library. Phage (˜300 TU/g in round 1 increased to ˜10^4 TU/g in round 3) were recovered after 5 min of circulation by grinding subcutaneous white fat with a glass Dounce homogenizer, suspending the homogenate in 4° C. Dulbecco's Modified Eagle's medium (DMEM) containing proteinase inhibitors (DMEM-prin: 1 mM PMSF, 20 μg/ml aprotinin, and 1 μg/ml leupeptin) and washing with DMEM-prin. The lipid phase was discarded during the washes and only the solid-phase cellular material was used. Washed homogenates were incubated with host bacteria (log phase E. coli K91kan; OD600˜2). Bacterial cultures were plated onto Luria-Bertani agar plates containing 40 μg/ml tetracycline and 100 μg/ml kanamycin, incubated overnight at 37° C. and selected clones were bulk-amplified and used to precipitate phage for a subsequent round of biopanning. The sub-library amplified after the third round of panning was enriched for fat-specific binders using a subtraction step. […]

prohibitin = biological target: T1, prohibitin (Mus musculus, UniProt P67778); test: Adipose receptor identification by binding and immunoprecipitation
T1 construct: from tissue; host or cells: mouse adipose tissue extract
T1 sequence (P67778 2-272): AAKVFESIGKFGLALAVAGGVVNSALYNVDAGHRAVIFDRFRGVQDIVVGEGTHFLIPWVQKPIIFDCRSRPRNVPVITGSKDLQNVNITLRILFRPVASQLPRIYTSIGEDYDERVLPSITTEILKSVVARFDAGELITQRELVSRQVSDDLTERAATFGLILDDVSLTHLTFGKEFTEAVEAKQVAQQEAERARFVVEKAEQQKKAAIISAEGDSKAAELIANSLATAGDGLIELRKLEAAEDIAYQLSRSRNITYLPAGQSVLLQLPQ
Experimental: A band of approximately 35,000 Daltons (35 kDa) was isolated from mouse adipose tissue extract that bound to […] (SEQ ID NO:81) conjugated to (KLAKLAK)2 (SEQ ID NO:1) (not shown). […] The 35 kDa band was analyzed by mass spectrometry, which identified three proteins present in the sample.
The three proteins included predominately a B cell receptor associated protein (prohibitin), apolipoprotein E, and the voltage dependent anion channel (VDAC). Further studies were performed by immunoprecipitation, using either […] (SEQ ID NO:81) or CARAC (SEQ ID NO:71) conjugated to […] (SEQ ID NO:1) and precipitating with commercially available antibodies.

MDA-MB-435 cells = test: Targeted phage vector transduction and peptide inhibition in cell culture; format: cell-based, human; settings: cells pre-incubated with synthetic peptide
Experimental: as §2, §3

white fat vasculature [5] = test: Peptide and phage localization in tissues; format: in vivo; settings: intravenous, ob/ob mice
Experimental: as §1

white fat vasculature [6] = test: Peptide localization in tissues; format: in vivo, C57BL/6 mice
Experimental: as §1

blocking of antibody binding [1]: capable of blocking binding
Compound: GRP78: recombinant 78 kDa glucose regulated protein (Stressgen)
inhibition of immunostaining [2]: staining was inhibited

Compound: CC(C)C[C@@H](NC(=O)[C@@H](CCCCN)NC(=O)CNC(=O)CNC(=O)[C@@H]1CSSC[C@H](N)C(=O)N[C@@H](CCCCN)C(=O)NCC(=O)NCC(=O)N[C@@H](CCCNC(=N)N)C(=O)N[C@@H](C)C(=O)N[C@@H](CCCCN)C(=O)N[C@@H](CC(=O)O)C(=O)N1)C(=O)N[C@H](C)C(=O)N[C@H](CCCCN)C(=O)N[C@H](CC(C)C)C(=O)N[C@H](C)C(=O)N[C@H](CCCCN)C(=O)N[C@H](CCCCN)C(=O)N[C@H](CC(C)C)C(=O)N[C@H](C)C(=O)N[C@H](CCCCN)C(=O)N[C@H](CC(C)C)C(=O)N[C@H](C)C(=O)N[C@H](CCCCN)C(=O)O (H-CKGGRAKDCGG[dK][dL][dA][dK][dL][dA][dK][dK][dL][dA][dK][dL][dA][dK]-OH; disulfide 1-9)
toxicity [3]: No toxicity
abnormalities in other organs (adipose tissue): No abnormalities in other organs
mortality [4]: occasionally observed to result in mortality

Compound: CTTHWGFTLC (disulfide 1-10 (inferred))
inhibition of HWGF-β-gal phage transduction (KS1767 cells): greater than 90%

receptor identified (prohibitin; adipose tissue endothelial receptor): prohibitin
enrichment of prohibitin in precipitated fraction (prohibitin; compared to the CARAC precipitated fraction): over a ten-fold enrichment
Compound: CKGGRAKDC
share of all clones identified in the screen (subcutaneous white fat): 4.5%

Compound: CDCRGDCFC (also: cyclized) [RGD-4C]
inhibition of RGD-4C-β-gal phage transduction (MDA-MB-435 cells): greater than 99%

Compound: CKGGRAKDC-FITC: 5-carboxyfluorescein (FITC)-conjugated cyclized CKGGRAKDC (disulfide 1-9 (inferred); also: FITC conjugate, site not given here)
localization to white fat vasculature (white fat vasculature [5]): localized to and was internalized by cells of white adipose vasculature
localization to white fat vasculature (white fat vasculature [6]; intravenous, C57BL/6 (leptin +/+) mice): specifically localized to blood vessels of subcutaneous and peritoneal white fat
co-localization with lectin-rhodamine in control tissue (white fat vasculature [6]; pancreatic tissue): No such co-localization was observed
